Reference: ChEMBL document CHEMBL1130395, “Cannabinol derivatives: binding to cannabinoid receptors and inhibition of adenylylcyclase” (J Med Chem, 1997)
The source made the active and inactive calls. No cut-off for these calls is given here.

Assays:
[1] = target: T1, Cannabinoid receptor 1 (Rattus norvegicus, UniProt P20272); experiment: Effective concentration for inhibition of Cannabinoid receptor 1-mediated adenylyl cyclase activity using African green monkey (COS-7) cells transfected with the cDNA of rat CB1 receptor; format: functional
[2] = target: T1, Cannabinoid receptor 1; experiment: Binding affinity of compound towards Cannabinoid receptor 1 in rat brain synaptosomal membrane preparations; format: cell membranes
[3] = target: T1, Cannabinoid receptor 1; experiment: Binding affinity of compound towards Cannabinoid receptor 1 in african green monkey COS-7 cells transfected with cDNA of rat CB1 receptor; format: cell-based
[4] = target: T2, Cannabinoid receptor 2 (Homo sapiens, UniProt P34972); experiment: Effective concentration for inhibition of human Cannabinoid receptor 2-mediated adenylyl cyclase using African green monkey (COS-7) cells transfected with the cDNA of human CB2 receptor; format: functional
[5] = target: T2, Cannabinoid receptor 2; experiment: Binding affinity of compound towards Cannabinoid receptor 2 in african green monkey COS-7 cells transfected with cDNA of human CB2 receptor; format: cell-based
[6] = target: T1, Cannabinoid receptor 1; experiment: Binding to Cannabinoid receptor 1 using African green monkey (COS-7) cells transfected with the cDNA of rat CB1.; format: cell-based
[7] = target: T1, Cannabinoid receptor 1; experiment: Binding affinity for Cannabinoid receptor 1 using African green monkey (COS-7) cells transfected with the cDNA of […].
[8] = target: T2, Cannabinoid receptor 2; experiment: Binding affinity to Cannabinoid receptor 2 using African green monkey (COS-7) cells Chinese hamster ovary(CHO) cells transfected with the cDNA of human CB2; format: cell-based
[9] = target: Cannabinoid receptor 1 (Rattus norvegicus) (UniProt P20272); experiment: Inhibitory affect of 1 uM of the substance against African green monkey (COS-7) cells transfected with the cDNA of rat Cannabinoid receptor 1; format: cell-based
[10] = target: T2, Cannabinoid receptor 2; experiment: Inhibitory activity of 1 uM against human Cannabinoid receptor 2-mediated adenylyl cyclase using African green monkey (COS-7) cells transfected with the cDNA of human CB2 receptor; format: functional, cell-based
[11] = target: T2, Cannabinoid receptor 2; experiment: Inhibitory affect of 1 uM of the substance against African green monkey (COS-7) cells Chinese hamster ovary(CHO) cells transfected with the cDNA of human Cannabinoid receptor 2; format: cell-based
[12] = target: Cannabinoid receptor 1 (Rattus norvegicus) (UniProt P20272); experiment: Inhibitory affect of 1 uM of the substance against Cannabinoid receptor 1-mediated adenylyl cyclase using African green monkey (COS-7) cells transfected with the cDNA of rat CB1 receptor; format: functional, cell-based
[13] = target: T2, Cannabinoid receptor 2; experiment: Inhibitory affect of 1 uM against African green monkey (COS-7) cells Chinese hamster ovary(CHO) cells transfected with the cDNA of human Cannabinoid receptor 2; format: cell-based
[14] = target: Cannabinoid receptor 1 (Rattus norvegicus) (UniProt P20272); experiment: Inhibitory affect of 1 uM againstAfrican green monkey (COS-7) cells transfected with the cDNA of rat Cannabinoid receptor 1; format: cell-based
[15] = target: Cannabinoid receptor 1 (Rattus norvegicus) (UniProt P20272); experiment: Inhibitory affect of 1 uM 0f the substance against cDNA of rat Cannabinoid receptor 1
[16] = target: Cannabinoid receptor 1 (Rattus norvegicus) (UniProt P20272); experiment: Inhibitory affect of 1 uM of the substance against Cannabinoid receptor 1-mediated adenylyl cyclase using African green monkey (COS-7) cells transfected with the cDNA of rat CB1 receptor; No inhibition; format: functional, cell-based
[17] = target: T2, Cannabinoid receptor 2; experiment: Inhibitory effect of 1 uM of the substance against African green monkey (COS-7) cells Chinese hamster ovary(CHO) cells transfected with the cDNA of human Cannabinoid receptor 2; format: cell-based
[18] = target: T2, Cannabinoid receptor 2; experiment: Inhibitory affect of 1 uM of the substance against human Cannabinoid receptor 2-mediated adenylyl cyclase using African green monkey (COS-7) cells transfected with the cDNA of human CB2 receptor; No inhibition; format: functional, cell-based

T1 sequence (P20272 whole entry): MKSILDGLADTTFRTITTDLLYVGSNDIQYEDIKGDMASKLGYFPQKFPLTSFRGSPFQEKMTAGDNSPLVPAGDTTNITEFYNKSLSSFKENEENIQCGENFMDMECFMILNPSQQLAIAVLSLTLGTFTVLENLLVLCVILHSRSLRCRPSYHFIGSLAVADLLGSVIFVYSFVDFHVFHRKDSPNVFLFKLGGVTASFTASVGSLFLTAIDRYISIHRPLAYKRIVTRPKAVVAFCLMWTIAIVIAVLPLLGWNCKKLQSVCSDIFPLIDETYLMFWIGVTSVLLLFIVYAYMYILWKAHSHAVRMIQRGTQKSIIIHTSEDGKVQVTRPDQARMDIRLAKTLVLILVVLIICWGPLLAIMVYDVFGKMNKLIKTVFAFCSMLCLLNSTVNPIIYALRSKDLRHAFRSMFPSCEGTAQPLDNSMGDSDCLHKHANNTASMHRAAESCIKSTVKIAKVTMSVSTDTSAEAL
Cannabinoid receptor 1 (Rattus norvegicus), sequence (P20272 whole entry): as above
T2 sequence (P34972 whole entry): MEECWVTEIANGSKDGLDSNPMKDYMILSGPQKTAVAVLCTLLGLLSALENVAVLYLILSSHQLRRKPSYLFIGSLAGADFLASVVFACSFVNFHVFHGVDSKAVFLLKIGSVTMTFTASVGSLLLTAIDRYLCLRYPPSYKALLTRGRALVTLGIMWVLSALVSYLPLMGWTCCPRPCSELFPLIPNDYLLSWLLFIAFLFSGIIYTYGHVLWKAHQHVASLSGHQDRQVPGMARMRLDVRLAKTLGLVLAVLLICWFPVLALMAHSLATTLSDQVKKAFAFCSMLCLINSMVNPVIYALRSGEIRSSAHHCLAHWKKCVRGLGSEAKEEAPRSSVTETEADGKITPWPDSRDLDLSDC

Question: `CCCCCc1cc(O)c2c(c1)OC(C)(C)c1ccc(C)cc1-2` [CANNABINOL] was tested. Which EC50 [1] did it give?
Answer: 120 nM

Question: And the Ki [2]?
Answer: 392 nM

Question: What about the Ki [3] of the same compound?
Answer: 211 nM

Question: What about the EC50 [4] of the same compound?
Answer: 261 nM

Question: And the Ki [5]?
Answer: 126 nM

Question: For `CCCCCCC(C)(C)c1cc(O)c2c(c1)OC(C)(C)[C@@H]1CC=C(C(=O)O)CC21` (some centres undefined), which EC50 [1] is on record?
Answer: 927 nM

Question: And the Ki [6]?
Answer: 32.3 nM

Question: What about the EC50 [4] of the same compound?
Answer: 116 nM

Question: What about the Ki [7] of the same compound?
Answer: 481 nM

Question: What about the Ki [8] of the same compound?
Answer: 170 nM

Question: How did the Ki [7] turn out when `CCCCCc1cc(O)c2c(c1)OC(C)(C)c1ccc(C(=O)O)cc1-2` was run?
Answer: 602 nM

Question: And the inhibition [9]?
Answer: < 2%

Question: What about the inhibition [10] of the same compound?
Answer: 6%

Question: And the inhibition [11]?
Answer: 23%

Question: What about the inhibition [12] of the same compound?
Answer: 10%

Question: What does the source list for `CCCCCc1cc(OC(C)=O)c2c(c1)OC(C)(C)c1ccc(C(=O)O)cc1-2`?
Answer: inhibition [13]: 19%; Ki [7]: > 10000 nM; inhibition [10]: 2%; inhibition [12]: 3%; inhibition [14]: 35%

Question: Which results are given for `CCCCCc1cc(O)c2c(c1)OC(C)(C)c1ccc(CO)cc1-2`?
Answer: EC50 [1]: 58.1 nM; Ki [6]: 38 nM; Ki [7]: 189 nM; inhibition [10]: 20%; Ki [8]: 26.6 nM

Question: Which results are given for `CCCCCCC(C)(C)c1cc(O)c2c(c1)OC(C)(C)c1ccc(C)cc1-2`?
Answer: EC50 [1]: 0.18 nM; Ki [6]: 2 nM; EC50 [4]: 0.79 nM; Ki [7]: 3.3 nM; Ki [8]: 1.5 nM

Question: What does the source list for `CCCCCCC(C)(C)c1cc(OC(C)=O)c2c(c1)OC(C)(C)c1ccc(C(=O)O)cc1-2`?
Answer: EC50 [1]: 13.3 nM; Ki [6]: 49.8 nM; EC50 [4]: 39.3 nM; Ki [7]: 556 nM; Ki [8]: 17.3 nM

Question: Which results are given for `CCCCCCC(C)(C)c1cc(O)c2c(c1)OC(C)(C)c1ccc(C(=O)O)cc1-2`?
Answer: EC50 [1]: 2.4 nM; Ki [6]: 6.1 nM; EC50 [4]: 5.4 nM; Ki [7]: 6.1 nM; Ki [8]: 4.8 nM

Question: Which results are given for `CCCCCCC(C)(C)c1cc(O)c2c(c1)OC(C)(C)[C@@H]1CCC(C)=CC21` (some centres undefined)?
Answer: EC50 [1]: 0.58 nM; Ki [6]: 0.241 nM; EC50 [4]: 1.01 nM; Ki [7]: 2.6 nM; Ki [8]: 0.199 nM

Question: With `CCCCCc1cc(O)c2c(c1)OC(C)(C)[C@@H]1CCC(C)=C[C@@H]21` as the compound, how does the inhibition [10] read?
Answer: 21%

Question: What does the source list for `CCCCCc1cc(O)c2c(c1)OC(C)(C)[C@@H]1CC=C(CO)CC21` (some centres undefined)?
Answer: EC50 [1]: 39.9 nM; Ki [6]: 25.8 nM; Ki [7]: 33.4 nM; inhibition [10]: 19%; Ki [8]: 7.4 nM

Question: What does the source list for `CCCCCCC(C)(C)c1cc(OC(C)=O)c2c(c1)OC(C)(C)[C@@H]1CC=C(C(=O)O)CC21` (some centres undefined)?
Answer: Ki [7]: > 10000 nM; inhibition [10]: 27%; inhibition [15]: 11%; inhibition [16]: inactive; inhibition [17]: 9%

Question: Which EC50 [1] does the source give for `CCCCCCC(C)(C)c1cc(O)c2c(c1)OC(C)(C)c1ccc(CO)cc1-2` here?
Answer: 0.056 nM

Question: And the Ki [6]?
Answer: 0.1 nM

Question: What about the EC50 [4] of the same compound?
Answer: 0.208 nM

Question: And the Ki [7]?
Answer: 1.8 nM

Question: What about the Ki [8] of the same compound?
Answer: 0.2 nM

Question: Which results are given for `CCCCCCC(C)(C)c1cc(O)c2c(c1)OC(C)(C)[C@@H]1CC=C(CO)CC21` (some centres undefined)?
Answer: EC50 [1]: 0.035 nM; Ki [6]: 0.1 nM; Ki [7]: 0.19 nM

Question: How did the inhibition [18] turn out when `CCCCCc1cc(O)c2c(c1)oc(=O)c1ccc(C)cc12` was run?
Answer: inactive

Question: And the Ki [7]?
Answer: > 10000 nM

Question: What about the inhibition [9] of the same compound?
Answer: 14%

Question: And the inhibition [11]?
Answer: 14%

Question: And the inhibition [12]?
Answer: 7%

Question: How did the EC50 [1] turn out when `CCCCCCC(C)(C)c1cc(O)c2c(c1)oc(=O)c1ccc(C)cc12` was run?
Answer: 9.6 nM

Question: What about the Ki [6] of the same compound?
Answer: 32.7 nM

Question: And the EC50 [4]?
Answer: 4.6 nM

Question: What about the Ki [7] of the same compound?
Answer: 72.5 nM

Question: And the Ki [8]?
Answer: 17.3 nM
